Data from US8435980B2 (AbbVie Inc., priority 2009, dated 2013).

Target: T1, Cdc7 (BEV coexpressed huCDC7/DBF4) (Homo sapiens, UniProt O00311)
T1 construct: made in house; host or cells: BEV (baculovirus expression vector) co-expression; insect cells are implied but no cell line is named
Assay: Cdc7 enzyme inhibition assay ([33P]ATP, biotinylated peptide substrate, FlashPlate)
Assay type: biochemical
Conditions: Table 3; enzyme inhibition data (Ki)
Description: Cdc7 (BEV coexpressed huCDC7/DBF4) is prepared internally. Cdc7 assays are conducted as follows with final concentrations as listed. […] Reactions are quenched after 1 hr by the addition of 90 μL stop buffer (50 mM EDTA, 2M NaCl). […] (Ki) for exemplary compounds.

T1 sequence (O00311 whole entry): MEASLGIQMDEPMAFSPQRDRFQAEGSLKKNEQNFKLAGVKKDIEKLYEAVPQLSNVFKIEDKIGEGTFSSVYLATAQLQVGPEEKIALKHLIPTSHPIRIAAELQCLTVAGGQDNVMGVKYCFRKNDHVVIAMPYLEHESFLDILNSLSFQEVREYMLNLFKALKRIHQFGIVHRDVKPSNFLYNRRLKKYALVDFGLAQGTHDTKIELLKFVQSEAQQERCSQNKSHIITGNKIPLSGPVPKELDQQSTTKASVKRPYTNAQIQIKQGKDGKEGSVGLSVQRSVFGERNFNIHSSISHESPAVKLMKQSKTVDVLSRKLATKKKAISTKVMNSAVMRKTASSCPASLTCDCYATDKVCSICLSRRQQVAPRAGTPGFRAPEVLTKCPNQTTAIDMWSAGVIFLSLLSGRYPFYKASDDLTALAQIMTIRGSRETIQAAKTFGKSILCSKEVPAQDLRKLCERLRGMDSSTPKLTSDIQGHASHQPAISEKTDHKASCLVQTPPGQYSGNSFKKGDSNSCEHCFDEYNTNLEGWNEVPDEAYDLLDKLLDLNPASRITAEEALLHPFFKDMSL
T1 sequence (Q9UBU7 whole entry partner): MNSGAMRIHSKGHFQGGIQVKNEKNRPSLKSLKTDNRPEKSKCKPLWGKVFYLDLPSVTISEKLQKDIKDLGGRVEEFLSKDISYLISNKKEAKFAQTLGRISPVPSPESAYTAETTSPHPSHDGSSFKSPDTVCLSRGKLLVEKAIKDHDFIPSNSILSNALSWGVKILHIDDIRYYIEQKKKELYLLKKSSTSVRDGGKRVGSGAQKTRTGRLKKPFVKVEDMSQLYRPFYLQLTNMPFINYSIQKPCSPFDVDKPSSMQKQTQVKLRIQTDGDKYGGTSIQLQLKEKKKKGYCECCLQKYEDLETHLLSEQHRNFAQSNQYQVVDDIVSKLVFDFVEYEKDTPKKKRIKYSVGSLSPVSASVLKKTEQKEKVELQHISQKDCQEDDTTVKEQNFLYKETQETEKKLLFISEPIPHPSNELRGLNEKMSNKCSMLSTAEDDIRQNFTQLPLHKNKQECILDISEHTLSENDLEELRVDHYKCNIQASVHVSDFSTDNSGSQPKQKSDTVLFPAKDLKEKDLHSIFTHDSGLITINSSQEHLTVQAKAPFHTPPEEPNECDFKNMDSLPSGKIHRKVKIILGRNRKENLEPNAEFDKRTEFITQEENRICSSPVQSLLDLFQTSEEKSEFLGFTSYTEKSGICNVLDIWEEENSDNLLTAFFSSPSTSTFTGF

Row | Compound | Ki
1 | Oc1cccc(CNc2nc(Cl)cc(-c3c[nH]c4ncccc34)n2)c1 [Example 457, 3-({[4-chloro-6-(1H-pyrrolo[2,3-b]pyridin-3-yl)pyrimidin-2-yl]amino}methyl)phenol] | < 10 nM
2 | Oc1ccc(CNc2nc(Cl)cc(-c3c[nH]c4ncccc34)n2)cc1 [Example 458, 4-({[4-chloro-6-(1H-pyrrolo[2,3-b]pyridin-3-yl)pyrimidin-2-yl]amino}methyl)phenol] | < 10 nM
3 | CN(C)C1CCC(Nc2nc(Cl)cc(-c3c[nH]c4ncccc34)n2)CC1 (stereo not drawn) [Example 459, N′-[4-chloro-6-(1H-pyrrolo[2,3-b]pyridin-3-yl)pyrimidin-2-yl]-N,N-dimethylcyclohexane-1,4-diamine] | < 10 nM
4 | NC1CCC(CC2CCC(Nc3nc(Cl)cc(-c4c[nH]c5ncccc45)n3)CC2)CC1 (stereo not drawn) [Example 465, N-{4-[(4-aminocyclohexyl)methyl]cyclohexyl}-4-chloro-6-(1H-pyrrolo[2,3-b]pyridin-3-yl)pyrimidin-2-amine] | < 10 nM
5 | NCCNc1nc(Cl)cc(-c2c[nH]c3ncccc23)n1 [Example 466, N-[4-chloro-6-(1H-pyrrolo[2,3-b]pyridin-3-yl)pyrimidin-2-yl]ethane-1,2-diamine] | < 10 nM
6 | OCCNc1nc(Cl)cc(-c2c[nH]c3ncccc23)n1 [Example 467, 2-{[4-chloro-6-(1H-pyrrolo[2,3-b]pyridin-3-yl)pyrimidin-2-yl]amino}ethanol] | < 10 nM
7 | NCCOCCOCCNc1nc(Cl)cc(-c2c[nH]c3ncccc23)n1 [Example 468, N-{2-[2-(2-aminoethoxy)ethoxy]ethyl}-4-chloro-6-(1H-pyrrolo[2,3-b]pyridin-3-yl)pyrimidin-2-amine] | < 10 nM
8 | O=C(NC1CCCC1)N[C@H]1CC[C@H](Nc2nc(Cl)cc(-c3c[nH]c4ncccc34)n2)CC1 [Example 470, 1-(trans-4-{[4-chloro-6-(1H-pyrrolo[2,3-b]pyridin-3-yl)pyrimidin-2-yl]amino}cyclohexyl)-3-cyclopentylurea] | < 10 nM
9 | CN(C)c1ccc(NC(=O)N[C@H]2CC[C@H](Nc3nc(Cl)cc(-c4c[nH]c5ncccc45)n3)CC2)cc1 [Example 471, 1-(trans-4-{[4-chloro-6-(1H-pyrrolo[2,3-b]pyridin-3-yl)pyrimidin-2-yl]amino}cyclohexyl)-3-[4-(dimethylamino)phenyl]urea] | < 10 nM
10 | O=C(CN1C(=O)c2ccccc2C1=O)N[C@H]1CC[C@H](Nc2nc(Cl)cc(-c3c[nH]c4ncccc34)n2)CC1 [Example 472, N-(trans-4-{[4-chloro-6-(1H-pyrrolo[2,3-b]pyridin-3-yl)pyrimidin-2-yl]amino}cyclohexyl)-2-(1,3-dioxo-1,3-dihydro-2H-isoindol-2-yl)acetamide] | < 10 nM
11 | O=C1NCCN1C(=O)N[C@H]1CC[C@H](Nc2nc(Cl)cc(-c3c[nH]c4ncccc34)n2)CC1 [Example 473, N-(trans-4-{[4-chloro-6-(1H-pyrrolo[2,3-b]pyridin-3-yl)pyrimidin-2-yl]amino}cyclohexyl)-2-oxoimidazolidine-1-carboxamide] | < 10 nM
12 | OCCOCCNc1nc(Cl)cc(-c2c[nH]c3ncccc23)n1 [Example 474, 2-(2-{[4-chloro-6-(1H-pyrrolo[2,3-b]pyridin-3-yl)pyrimidin-2-yl]amino}ethoxy)ethanol] | < 10 nM
13 | NCCOCCNc1nc(Cl)cc(-c2c[nH]c3ncccc23)n1 [Example 475, N-[2-(2-aminoethoxy)ethyl]-4-chloro-6-(1H-pyrrolo[2,3-b]pyridin-3-yl)pyrimidin-2-amine] | < 10 nM
14 | Clc1cc(-c2c[nH]c3ncccc23)nc(N[C@H]2CC[C@H](NC3CCCC3)CC2)n1 [Example 477, trans-N-[4-chloro-6-(1H-pyrrolo[2,3-b]pyridin-3-yl)pyrimidin-2-yl]-N′-cyclopentylcyclohexane-1,4-diamine] | < 10 nM
15 | O=C(CNC1CCCC1)N[C@H]1CC[C@H](Nc2nc(Cl)cc(-c3c[nH]c4ncccc34)n2)CC1 [Example 478, N-(trans-4-{[4-chloro-6-(1H-pyrrolo[2,3-b]pyridin-3-yl)pyrimidin-2-yl]amino}cyclohexyl)-N~2~-cyclopentylglycinamide] | < 10 nM
16 | CCCS(=O)(=O)N[C@H]1CC[C@H](Nc2nc(Cl)cc(-c3c[nH]c4ncccc34)n2)CC1 [Example 479, N-(trans-4-{[4-chloro-6-(1H-pyrrolo[2,3-b]pyridin-3-yl)pyrimidin-2-yl]amino}cyclohexyl)propane-1-sulfonamide] | < 10 nM
17 | CC(=O)N[C@H]1CC[C@H](Oc2nc(Cl)cc(-c3c[nH]c4ncccc34)n2)CC1 [Example 480, N-(trans-4-{[4-chloro-6-(1H-pyrrolo[2,3-b]pyridin-3-yl)pyrimidin-2-yl]oxy}cyclohexyl)acetamide] | 10 to 100 nM
18 | O=S(=O)(N[C@H]1CC[C@H](Nc2nc(Cl)cc(-c3c[nH]c4ncccc34)n2)CC1)c1ccsc1 [Example 481, N-(trans-4-{[4-chloro-6-(1H-pyrrolo[2,3-b]pyridin-3-yl)pyrimidin-2-yl]amino}cyclohexyl)thiophene-3-sulfonamide] | < 10 nM

More lines, now with the values ahead:

Row | Ki | Compound
19 | < 10 nM | Clc1cc(-c2c[nH]c3ncccc23)cc(Nc2ccc3ncccc3c2)n1 [Example 442, N-[6-chloro-4-(1H-pyrrolo[2,3-b]pyridin-3-yl)pyridin-2-yl]quinolin-6-amine]
20 | < 10 nM | CN1CCN(c2ccc(Nc3cc(-c4c[nH]c5ncccc45)cc(Cl)n3)cc2)CC1 [Example 443, 6-chloro-N-[4-(4-methylpiperazin-1-yl)phenyl]-4-(1H-pyrrolo[2,3-b]pyridin-3-yl)pyridin-2-amine]
21 | < 10 nM | O=S1(=O)CCN(c2ccc(Nc3cc(-c4c[nH]c5ncccc45)cc(Cl)n3)cc2)CC1 [Example 444, 6-chloro-N-[4-(1,1-dioxidothiomorpholin-4-yl)phenyl]-4-(1H-pyrrolo[2,3-b]pyridin-3-yl)pyridin-2-amine]
22 | < 10 nM | COc1cnc2[nH]cc(-c3cc(Cl)nc(N[C@H]4CC[C@H](NC(=O)CN[C@H]5CC[C@H](O)CC5)CC4)c3)c2c1 [Example 445, N-(trans-4-{[6-chloro-4-(5-methoxy-1H-pyrrolo[2,3-b]pyridin-3-yl)pyridin-2-yl]amino}cyclohexyl)-N~2~-(trans-4-hydroxycyclohexyl)glycinamide]
23 | < 10 nM | COc1cnc2[nH]cc(-c3cc(Cl)nc(N[C@H]4CC[C@H](NC(=O)CNC(C)C)CC4)c3)c2c1 [Example 446, N-(trans-4-{[6-chloro-4-(5-methoxy-1H-pyrrolo[2,3-b]pyridin-3-yl)pyridin-2-yl]amino}cyclohexyl)-N~2~-propan-2-ylglycinamide]
24 | < 10 nM | COc1cnc2[nH]cc(-c3cc(Cl)nc(NC4CCC(CC5CCC(NS(=O)(=O)c6c(C)noc6C)CC5)CC4)c3)c2c1 (stereo not drawn) [Example 447, N-{4-[(4-{[6-chloro-4-(5-methoxy-1H-pyrrolo[2,3-b]pyridin-3-yl)pyridin-2-yl]amino}cyclohexyl)methyl]cyclohexyl}-3,5-dimethyl-1,2-oxazole-4-sulfonamide]
25 | < 10 nM | COc1cnc2[nH]cc(-c3cc(Cl)nc(NC4CCCC(NC(=O)CN(C)C)C4)c3)c2c1 (stereo not drawn) [Example 448, N-(3-{[6-chloro-4-(5-methoxy-1H-pyrrolo[2,3-b]pyridin-3-yl)pyridin-2-yl]amino}cyclohexyl)-N~2~,N~2~-dimethylglycinamide]
26 | < 10 nM | Clc1cc(-c2c[nH]c3ncccc23)cc(Nc2ccc(N3CCN(Cc4ccccn4)CC3)cc2)n1 [Example 449, 6-chloro-N-{4-[4-(pyridin-2-ylmethyl)piperazin-1-yl]phenyl}-4-(1H-pyrrolo[2,3-b]pyridin-3-yl)pyridin-2-amine]
27 | < 10 nM | Clc1cc(-c2c[nH]c3ncccc23)cc(Nc2ccc(N3CCN(CC4CCCCC4)CC3)cc2)n1 [Example 450, 6-chloro-N-{4-[4-(cyclohexylmethyl)piperazin-1-yl]phenyl}-4-(1H-pyrrolo[2,3-b]pyridin-3-yl)pyridin-2-amine]
28 | < 10 nM | CC(C)CN1CCN(c2ccc(Nc3cc(-c4c[nH]c5ncccc45)cc(Cl)n3)cc2)CC1 [Example 451, 6-chloro-N-{4-[4-(2-methylpropyl)piperazin-1-yl]phenyl}-4-(1H-pyrrolo[2,3-b]pyridin-3-yl)pyridin-2-amine]
29 | < 10 nM | Nc1ccc(-c2cnc3[nH]cc(-c4cc(Cl)nc(N[C@H]5CC[C@H](NS(=O)(=O)C6CC6)CC5)c4)c3c2)cn1 [Example 452, N-[trans-4-({4-[5-(6-aminopyridin-3-yl)-1H-pyrrolo[2,3-b]pyridin-3-yl]-6-chloropyridin-2-yl}amino)cyclohexyl]cyclopropanesulfonamide]
30 | < 10 nM | O=S(=O)(N[C@H]1CC[C@H](Nc2cc(-c3c[nH]c4ncc(-c5cccnc5)cc34)cc(Cl)n2)CC1)C1CC1 [Example 453, N-[trans-4-({6-chloro-4-[5-(pyridin-3-yl)-1H-pyrrolo[2,3-b]pyridin-3-yl]pyridin-2-yl}amino)cyclohexyl]cyclopropanesulfonamide]
31 | < 10 nM | NS(=O)(=O)c1cccc(-c2cnc3[nH]cc(-c4cc(Cl)nc(N[C@H]5CC[C@H](NS(=O)(=O)C6CC6)CC5)c4)c3c2)c1 [Example 454, 3-{3-[2-chloro-6-({trans-4-[(cyclopropylsulfonyl)amino]cyclohexyl}amino)pyridin-4-yl]-1H-pyrrolo[2,3-b]pyridin-5-yl}benzenesulfonamide]
32 | < 10 nM | O=S(=O)(N[C@H]1CC[C@H](Nc2cc(-c3c[nH]c4ncc(-c5cncnc5)cc34)cc(Cl)n2)CC1)C1CC1 [Example 455, N-[trans-4-({6-chloro-4-[5-(pyrimidin-5-yl)-1H-pyrrolo[2,3-b]pyridin-3-yl]pyridin-2-yl}amino)cyclohexyl] cyclopropanesulfonamide]
33 | < 10 nM | C[C@@H](Nc1nc(Cl)cc(-c2c[nH]c3ncccc23)n1)c1ccccc1 [Example 456, 4-chloro-N-[(1R)-1-phenylethyl]-6-(1H-pyrrolo[2,3-b]pyridin-3-yl)pyrimidin-2-amine]
